Data published in US12581252B2, “Substituted pyrrolo[3,4-b]pyridines as PI3K-α inhibitors” (Relay Therapeutics, Inc., priority 2020, dated 2026).

Tests used:
cells = conditions: Homo sapiens, MCF-10A, read-out: MCF10A IC50
H1047R PIK3CA enzyme = H1047R PIK3CA enzyme (Homo sapiens, UniProt P42336, H1047R); experiment: ADP-Glo Biochemical PIK3CA Kinase Assay
Sequence of H1047R PIK3CA enzyme (P42336 whole entry H1047R): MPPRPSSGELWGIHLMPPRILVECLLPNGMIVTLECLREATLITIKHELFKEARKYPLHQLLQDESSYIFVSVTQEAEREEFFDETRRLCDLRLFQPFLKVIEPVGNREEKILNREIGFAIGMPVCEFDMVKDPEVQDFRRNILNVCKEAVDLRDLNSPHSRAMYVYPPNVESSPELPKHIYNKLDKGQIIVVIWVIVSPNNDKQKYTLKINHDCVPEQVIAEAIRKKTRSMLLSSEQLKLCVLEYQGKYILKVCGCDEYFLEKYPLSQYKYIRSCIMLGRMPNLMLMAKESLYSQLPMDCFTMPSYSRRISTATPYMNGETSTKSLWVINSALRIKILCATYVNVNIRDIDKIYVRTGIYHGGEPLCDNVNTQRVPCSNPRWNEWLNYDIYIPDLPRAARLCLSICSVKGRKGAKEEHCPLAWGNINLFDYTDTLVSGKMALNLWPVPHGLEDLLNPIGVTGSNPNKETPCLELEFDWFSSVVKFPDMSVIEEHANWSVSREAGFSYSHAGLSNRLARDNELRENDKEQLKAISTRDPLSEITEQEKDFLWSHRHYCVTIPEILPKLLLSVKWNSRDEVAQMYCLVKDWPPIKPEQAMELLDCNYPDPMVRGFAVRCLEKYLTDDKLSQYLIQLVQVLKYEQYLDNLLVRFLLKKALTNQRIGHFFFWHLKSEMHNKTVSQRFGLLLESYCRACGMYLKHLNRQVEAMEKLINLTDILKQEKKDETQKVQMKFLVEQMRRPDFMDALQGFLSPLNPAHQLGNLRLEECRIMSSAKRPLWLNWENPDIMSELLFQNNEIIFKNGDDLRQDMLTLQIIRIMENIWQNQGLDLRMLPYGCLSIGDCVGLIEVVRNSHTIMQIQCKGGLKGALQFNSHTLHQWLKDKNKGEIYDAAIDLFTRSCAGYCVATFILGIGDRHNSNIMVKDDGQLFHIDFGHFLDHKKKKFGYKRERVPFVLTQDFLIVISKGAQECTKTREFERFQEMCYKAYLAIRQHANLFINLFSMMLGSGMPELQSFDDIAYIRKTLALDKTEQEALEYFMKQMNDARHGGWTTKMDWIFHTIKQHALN
Sequence of H1047R PIK3CA enzyme (P27986 whole entry partner): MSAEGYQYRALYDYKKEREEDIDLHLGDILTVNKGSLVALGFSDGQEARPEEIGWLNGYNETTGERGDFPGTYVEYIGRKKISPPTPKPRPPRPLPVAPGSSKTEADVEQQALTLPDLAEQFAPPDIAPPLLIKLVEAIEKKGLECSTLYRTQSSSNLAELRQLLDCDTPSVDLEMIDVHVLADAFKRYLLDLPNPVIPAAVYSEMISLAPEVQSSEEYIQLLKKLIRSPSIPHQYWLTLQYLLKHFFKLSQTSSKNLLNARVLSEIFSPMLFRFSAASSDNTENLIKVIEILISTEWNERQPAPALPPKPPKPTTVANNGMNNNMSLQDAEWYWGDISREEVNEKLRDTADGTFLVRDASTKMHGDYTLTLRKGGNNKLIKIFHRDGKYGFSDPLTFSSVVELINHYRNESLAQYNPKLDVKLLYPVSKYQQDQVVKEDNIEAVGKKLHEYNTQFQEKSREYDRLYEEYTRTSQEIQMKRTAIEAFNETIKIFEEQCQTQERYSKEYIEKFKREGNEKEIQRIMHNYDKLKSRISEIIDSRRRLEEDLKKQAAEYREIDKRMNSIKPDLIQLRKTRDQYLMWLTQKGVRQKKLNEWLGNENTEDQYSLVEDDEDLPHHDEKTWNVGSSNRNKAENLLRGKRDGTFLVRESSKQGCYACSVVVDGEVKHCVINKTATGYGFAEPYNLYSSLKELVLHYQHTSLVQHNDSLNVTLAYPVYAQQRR

Compound	IC50 (cells) [µM]	IC50 (H1047R PIK3CA enzyme) [µM]
N#CCc1ccc(NC(=O)N2C[C@](O)(C(F)(F)F)c3cc(F)ccc32)c2c1C(=O)N[C@H]2c1cc(F)ccc1Cl (single isomer, unassigned) [Compound I-2614]	< 1	≤ 0.1
O=C(Nc1cc(Br)cc2c1[C@H](c1cc(F)ccc1Cl)NC2=O)c1cc(F)cc(C(F)(F)F)c1 [Compound I-388]	< 1	≤ 0.1
O=C(Nc1cc(-c2cccc3cnccc23)cc2c1C(c1cc(F)ccc1Cl)NC2=O)c1cc(F)cc(C(F)(F)F)c1 (centres unmarked) [Compound I-902]	< 1	≤ 0.1
CC(C)(C)OC(=O)N1CC(n2cc(-c3cc(NC(=O)c4cc(F)cc(C(F)(F)F)c4)c4c(c3)C(=O)NC4c3cc(F)ccc3Cl)cn2)C1 (centres unmarked) [Compound I-944]	5 to 10	≤ 0.1
O=C(Nc1cc(-c2cccnc2)cc2c1[C@@H](c1cc(F)ccc1Cl)NC2=O)c1cc(F)cc(C(F)(F)F)c1 (stereo in doubt) [Compound I-1009]	< 1	≤ 0.1
O=C(Nc1cc(Nc2ncc[nH]2)cc2c1C(c1cc(F)ccc1Cl)NC2=O)c1cc(F)cc(C(F)(F)F)c1 (centres unmarked) [Compound I-999]	1 to 5	≤ 0.1
O=C(Nc1cc(-c2ccc3[nH]ncc3c2)cc2c1C(c1cc(F)ccc1Cl)NC2=O)c1cc(F)cc(C(F)(F)F)c1 (centres unmarked) [Compound I-1033]	< 1	≤ 0.1
O=C(Nc1cc(-c2cccc3c2CCNC3=O)cc2c1C(c1cc(F)ccc1Cl)NC2=O)c1cc(F)cc(C(F)(F)F)c1 (centres unmarked) [Compound I-1042]	< 1	≤ 0.1
COc1nccc(-c2cc(NC(=O)c3cc(F)cc(C(F)(F)F)c3)c3c(c2)C(=O)NC3c2cc(F)ccc2Cl)n1 (centres unmarked) [Compound I-1105]	< 1	≤ 0.1
CC(C)(O)c1cc(NC(=O)c2cc(F)cc(Cl)c2)c2c(c1)C(=O)N[C@H]2c1cc(F)ccc1Cl [Compound I-298]	< 1	≤ 0.1
Cc1nc2ncc(-c3cc(NC(=O)c4cc(F)cc(C(F)(F)F)c4)c4c(c3)C(=O)NC4c3cc(F)ccc3Cl)cn2n1 (centres unmarked) [Compound I-1124]	< 1	≤ 0.1
Nc1cc(NC(=O)N2C[C@@H](O)c3ccccc32)c2c(c1)C(=O)N[C@H]2c1cc(F)ccc1Cl (single isomer, unassigned) [Compound I-2133]	< 1	≤ 0.1
O=C1NC(c2cc(F)ccc2Cl)c2c(NC(=O)c3nsc4ccccc34)cc(Br)cc21 (centres unmarked) [Compound I-144]	5 to 10	≤ 0.1
O=C1N[C@@H](c2cc(F)ccc2Cl)c2c(NC(=O)N3CCc4ccccc43)cc(-c3ccc4ncnn4c3)cc21 (stereo in doubt) [Compound I-1715]	< 1	≤ 0.1
O=C1NC(c2cc(F)ccc2Cl)c2c(Nc3nccc4c(C(F)(F)F)cc(F)cc34)cc(Br)cc21 (centres unmarked) [Compound I-978]	< 1	≤ 0.1
O=C(Nc1cc(Nc2cc[nH]n2)cc2c1C(c1cc(F)ccc1Cl)NC2=O)c1cc(F)cc(C(F)(F)F)c1 (centres unmarked) [Compound I-1112]	< 1	≤ 0.1
N#CCc1cc(NC(=O)N2C[C@](O)(C(F)(F)F)c3cc(F)ccc32)c2c(c1)C(=O)N[C@@H]2c1cc(F)ccc1Cl (single isomer, unassigned) [Compound I-2627]	< 1	≤ 0.1
N#Cc1cc(NC(=O)N2C[C@](O)(C(F)(F)F)c3cc(F)ccc32)c2c(c1)C(=O)N[C@@H]2c1cc(F)ccc1Cl (single isomer, unassigned) [Compound I-2562]	< 1	≤ 0.1
Cn1ccc(-c2cc(NC(=O)c3cc(F)cc(C(F)(F)F)c3)c3c(c2)C(=O)NC3c2cc(F)ccc2Cl)n1 (centres unmarked) [Compound I-947]	< 1	≤ 0.1
N#CC1(C(=O)Nc2cc(NC(=O)c3cc(F)cc(C(F)(F)F)c3)c3c(c2)C(=O)NC3c2cc(F)ccc2Cl)CNC1 (centres unmarked) [Compound I-2149]	10 to 36	≤ 0.1
O=C(Nc1cc(Nc2nc3ccccc3[nH]2)cc2c1C(c1cc(F)ccc1Cl)NC2=O)c1cc(F)cc(C(F)(F)F)c1 (centres unmarked) [Compound I-993]	1 to 5	≤ 0.1
O=C(Nc1cc(-n2cncn2)cc2c1C(c1cc(F)ccc1Cl)NC2=O)c1cc(F)cc(C(F)(F)F)c1 (centres unmarked) [Compound I-1086]	< 1	≤ 0.1
O=C(Nc1cc(-c2cnc(N3CCOCC3)nc2)cc2c1C(c1cc(F)ccc1Cl)NC2=O)c1cc(F)cc(C(F)(F)F)c1 (centres unmarked) [Compound I-930]	1 to 5	≤ 0.1
NCCc1cc(NC(=O)N2C[C@H](O)c3cc(F)ccc32)c2c(c1)C(=O)N[C@@H]2c1cc(F)ccc1Cl (single isomer, unassigned) [Compound I-2443]	10 to 36	≤ 0.1
O=C1N[C@@H](c2cc(F)ccc2Cl)c2c(NC(=O)N3C[C@](O)(C(F)(F)F)c4cc(F)ccc43)cc(Cl)nc21 (single isomer, unassigned) [Compound I-2704]	< 1	≤ 0.1
